Test results reported in patent US11352338B2, “Substituted isoindolinones” (BioTheryX, Inc., priority 2018, dated 2022).

What was measured:
PDE6D = biological target: T1, PDE6D (Homo sapiens, UniProt O43924+Q96SW2); assay: Western blot, degradation of cellular PDE6D in MV-4-11 cells; assay type: cell-based; settings: for Dmax at 1 µM: MV4-11, tested at 1 μM, MV-4-11 cells, 6-8 hours, read-out: % Degradation compared to DMSO, PDE6D
T1 construct: endogenous in cells; host or cells: MV-4-11
Procedure: (§1) MV-4-11 cells were grown in RPMI 1640 media supplemented with 10% fetal bovine serum, streptomycin and penicillin.
(§2) Cells were cultured at approximately 10^6 cells per mL and incubated in DMSO or the indicated compounds for 6-8 hours. Whole cell extracts were prepared using RIPA lysis buffer according to manufacturer's protocol (Pierce). Briefly, 4×10^6 cells were washed once in PBS, the cell pellets were resuspended in RIPA lysis buffer and allowed to incubate for 15 minutes on ice. Cells debris was removed by centrifugation and the cleared whole cell lysates were transferred to new tubes for further analysis.
(§3) For Western blot analysis, whole cell protein extracts were separated on 4-12% SDS-polyacrylamide gels, transferred to nitrocellulose and probed with the indicated primary antibodies. Membranes were subsequently washed and probed with the appropriate IRDye secondary antibodies (LI-COR). The signal was detected using the Odyssey Imaging System (LI-COR).
(§4) The following antibodies were used in these studies: Anti-PDE6D antibody: Santa Cruz Biotechnology, sc-166854 (Dallas, Tex.); Anti-Ikaros: Abcam, ab191394 (Cambridge, Mass.); anti-CK1α antibody: Abcam, ab108296 (Cambridge, Mass.); β-Actin (8H10D10) mouse monoclonal antibody: Cell Signaling Technology, #3700 (Danvers, Mass.); IRDye 680RD Goat anti-rabbit antibody: LI-COR, 926-68071 (Lincoln, Nebr.); and IRDye 800CW Goat anti-mouse antibody: LI-COR, 926-32210 (Lincoln, Nebr.).
(§5) The % degradation values are reported as “A”, “B”, “C”, or “D.” “A” represents a % degradation value of less than 25% (value<25%); “B” represents a % degradation value of equal to or more than 25% and less than 50% (25%≤value<50%); “C” represents a % degradation value of equal to or more than 50% and less than 75% (50%≤value<75%); and “D” represents a % degradation value of equal to or more than 75% (value≥75%). […] was used as control.

CK1α = biological target: T2, CK1α (Homo sapiens, UniProt P48729+Q96SW2); assay: Western blot, degradation of cellular CK1α in MV-4-11 cells; assay type: cell-based; settings: MV4-11, tested at 1 μM, 6-8 hours, read-out: % Degradation compared to DMSO, CK1α
T2 construct: endogenous in cells; host or cells: MV-4-11
Procedure: as §1, §2, §3, §4, §5

Ikaros = biological target: T3, Ikaros (Homo sapiens, UniProt Q13422+Q96SW2); assay: Western blot, degradation of cellular Ikaros in MV-4-11 cells; assay type: cell-based; settings: MV4-11, tested at 1 μM, 6-8 hours, read-out: % Degradation compared to DMSO, Ikaros
T3 construct: endogenous in cells; host or cells: MV-4-11
Procedure: as §1, §2, §3, §4, §5

IL-1β = IL-1β inhibition, LPS-induced PBMCs or CD14+ monocytes, Meso Scale assay; assay type: cell-based; settings: LPS 100 ng/mL 18-24 h, read-out: % Inhibition compared to DMSO, IL-1β; for inhibition at 1 µM: tested at 1 μM; for inhibition at 10 µM: tested at 10 μM
Procedure: (§6) Either frozen primary blood mononuclear cells (PBMCs) or frozen CD14+ mobilized peripheral blood monocytes were purchased from AllCells (PB003F, Normal Peripheral Blood MNC (Alameda, Calif.)). Cells were quick thawed, washed 1-time with RPMI-1640 (10% FBS/1% Pen-Strep) and plated in 96 well plates at 200,000 cells per well. Cells were pretreated with DMSO only or with the indicated compound for 1 h and then induced with 100 ng/mL lipopolysaccharide (LPS) for 18-24 h. The supernatant was analyzed for IL-1β, IL-6, and TNFα, using Meso Scale assay according to manufacturer's protocol. The negative control wells were treated with DMSO.
(§7) IL-1β, IL-6 and TNFα activities were tested at two different concentrations (1 μM and 10 μM) and the results are shown in Tables 2 and 3 respectively.

IL-6 = IL-6 inhibition, LPS-induced PBMCs or CD14+ monocytes, Meso Scale assay; assay type: cell-based; settings: LPS 100 ng/mL 18-24 h, read-out: % Inhibition compared to DMSO, IL-6; for inhibition at 1 µM: tested at 1 μM; for inhibition at 10 µM: tested at 10 μM
Procedure: as §6, §7

TNFα = TNFα inhibition, LPS-induced PBMCs or CD14+ monocytes, Meso Scale assay; assay type: cell-based; settings: LPS 100 ng/mL 18-24 h, read-out: % Inhibition compared to DMSO, TNFα; for inhibition at 1 µM: tested at 1 μM; for inhibition at 10 µM: tested at 10 μM
Procedure: as §6, §7

IL-2 = IL-2 inhibition assay, anti-CD3 (OKT3) stimulated PBMCs, Mesoscale IL-2 analysis; assay type: cell-based, human; settings: for fold induction at 1 µM / fold induction at 10 µM: Homo sapiens, PBMC, PBMCs on anti-CD3, 24 h, fold difference from DMSO control, read-out: IL-2, % Induction compared to DMSO
Procedure: For the IL-2 analysis, 96 well plates were precoated with 1 μg/mL anti-human CD3 antibody (OKT3, eBioscience Inc., San Diego, Calif.). After washing with PBS, the indicated compound was added (50 μL/well) followed by PBMCs diluted at 3-4 million cells/mL (150 μL/well). Plates were incubated for 24 h and the supernatants collected for Mesoscale IL-2 analysis. IL-2 activity is measured as fold difference from the DMSO control. […]
In Table 4, the fold-change values are reported as “A”, “B”, “C”, or “D”. “A” represents a fold-change value of equal to or less than 0.5 (value≤0.5); “B” represents a fold-change value of more than 0.5 and equal to or less than 1 (0.5<value≤1); “C” represents a fold-change value of more than 1 and less than 1.5 (1<value<1.5); and “D” represents a fold-change value of equal to or more than 1.5 (value≥1.5).

T2 sequence (P48729 whole entry): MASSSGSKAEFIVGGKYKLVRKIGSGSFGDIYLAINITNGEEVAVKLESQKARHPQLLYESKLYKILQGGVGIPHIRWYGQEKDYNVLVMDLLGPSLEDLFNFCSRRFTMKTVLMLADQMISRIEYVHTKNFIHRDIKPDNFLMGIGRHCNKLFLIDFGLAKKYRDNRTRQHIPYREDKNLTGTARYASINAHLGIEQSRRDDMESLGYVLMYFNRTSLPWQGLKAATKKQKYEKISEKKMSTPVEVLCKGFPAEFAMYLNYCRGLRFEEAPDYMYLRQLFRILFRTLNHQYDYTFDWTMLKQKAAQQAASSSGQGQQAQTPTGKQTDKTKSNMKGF
T2 sequence (Q96SW2 whole entry): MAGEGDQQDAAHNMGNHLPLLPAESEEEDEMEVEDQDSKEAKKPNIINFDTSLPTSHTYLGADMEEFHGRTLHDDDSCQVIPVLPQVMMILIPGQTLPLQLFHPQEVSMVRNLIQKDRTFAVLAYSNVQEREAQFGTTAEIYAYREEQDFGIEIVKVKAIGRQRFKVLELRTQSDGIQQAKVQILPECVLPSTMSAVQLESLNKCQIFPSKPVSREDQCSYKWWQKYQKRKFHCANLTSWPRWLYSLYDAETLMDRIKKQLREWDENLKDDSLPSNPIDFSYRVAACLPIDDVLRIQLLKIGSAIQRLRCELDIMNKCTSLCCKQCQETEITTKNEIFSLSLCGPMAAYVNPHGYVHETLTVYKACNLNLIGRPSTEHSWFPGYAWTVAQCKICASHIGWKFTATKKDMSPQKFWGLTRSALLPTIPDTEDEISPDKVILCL
T2 sequence (Q16531 whole entry partner): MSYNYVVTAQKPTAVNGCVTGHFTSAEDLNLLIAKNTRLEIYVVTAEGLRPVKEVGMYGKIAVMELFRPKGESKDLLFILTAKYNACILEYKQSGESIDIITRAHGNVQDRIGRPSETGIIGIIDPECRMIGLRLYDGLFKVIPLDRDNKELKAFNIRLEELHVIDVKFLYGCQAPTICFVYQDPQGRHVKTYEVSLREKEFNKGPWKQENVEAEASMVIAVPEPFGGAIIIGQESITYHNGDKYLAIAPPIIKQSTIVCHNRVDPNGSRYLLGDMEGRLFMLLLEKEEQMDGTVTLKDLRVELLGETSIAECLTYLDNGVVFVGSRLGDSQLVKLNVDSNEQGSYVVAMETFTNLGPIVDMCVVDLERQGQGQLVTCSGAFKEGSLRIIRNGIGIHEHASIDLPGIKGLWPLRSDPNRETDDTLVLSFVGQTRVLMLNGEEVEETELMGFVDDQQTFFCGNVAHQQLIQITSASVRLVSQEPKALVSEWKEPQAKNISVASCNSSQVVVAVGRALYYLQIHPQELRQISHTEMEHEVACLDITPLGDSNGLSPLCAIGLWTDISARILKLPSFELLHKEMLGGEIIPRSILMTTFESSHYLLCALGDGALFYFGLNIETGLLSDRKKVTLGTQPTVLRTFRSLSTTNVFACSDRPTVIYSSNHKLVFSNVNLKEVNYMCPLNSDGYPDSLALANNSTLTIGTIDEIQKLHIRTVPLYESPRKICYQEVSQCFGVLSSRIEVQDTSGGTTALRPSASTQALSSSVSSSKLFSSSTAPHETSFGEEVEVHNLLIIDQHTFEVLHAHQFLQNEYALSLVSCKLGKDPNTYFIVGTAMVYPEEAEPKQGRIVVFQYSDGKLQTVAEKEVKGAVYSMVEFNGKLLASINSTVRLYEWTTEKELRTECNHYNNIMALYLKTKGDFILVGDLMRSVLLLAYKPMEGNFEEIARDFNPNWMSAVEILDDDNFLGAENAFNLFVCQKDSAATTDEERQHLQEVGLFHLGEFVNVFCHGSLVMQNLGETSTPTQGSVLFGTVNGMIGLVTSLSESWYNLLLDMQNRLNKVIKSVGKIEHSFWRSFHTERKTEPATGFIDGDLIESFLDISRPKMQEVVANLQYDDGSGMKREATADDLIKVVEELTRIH
T1 sequence (O43924 whole entry): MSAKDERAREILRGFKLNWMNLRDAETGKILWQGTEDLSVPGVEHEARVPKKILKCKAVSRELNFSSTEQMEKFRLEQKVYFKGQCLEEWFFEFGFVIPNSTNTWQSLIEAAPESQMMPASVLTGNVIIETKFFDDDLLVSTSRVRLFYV
T1 sequence (Q96SW2 whole entry): as the sequence (Q96SW2 whole entry) above
T1 sequence (Q16531 whole entry partner): as the sequence (Q16531 whole entry partner) above
T3 sequence (Q13422 whole entry): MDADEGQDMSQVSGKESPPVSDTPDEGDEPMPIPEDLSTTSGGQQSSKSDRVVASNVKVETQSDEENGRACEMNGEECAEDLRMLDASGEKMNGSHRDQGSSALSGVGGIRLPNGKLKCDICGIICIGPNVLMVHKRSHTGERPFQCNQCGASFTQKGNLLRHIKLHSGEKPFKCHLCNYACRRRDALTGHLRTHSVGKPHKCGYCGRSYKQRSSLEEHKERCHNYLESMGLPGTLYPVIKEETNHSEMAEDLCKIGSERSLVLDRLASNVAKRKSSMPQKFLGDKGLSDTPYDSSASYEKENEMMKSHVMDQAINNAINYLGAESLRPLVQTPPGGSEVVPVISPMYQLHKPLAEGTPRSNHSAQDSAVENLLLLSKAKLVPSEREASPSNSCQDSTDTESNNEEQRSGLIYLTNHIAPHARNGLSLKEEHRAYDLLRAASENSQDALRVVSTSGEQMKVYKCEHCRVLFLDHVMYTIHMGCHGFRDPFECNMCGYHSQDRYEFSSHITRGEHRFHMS
T3 sequence (Q96SW2 whole entry): as the sequence (Q96SW2 whole entry) above
T3 sequence (Q16531 whole entry partner): as the sequence (Q16531 whole entry partner) above

Dmax at 1 µM (PDE6D) [%]	Dmax at 1 µM (CK1α) [%]	Dmax at 1 µM (Ikaros) [%]	Structure (SMILES)	inhibition at 1 µM (IL-1β) [%]	inhibition at 10 µM (IL-1β) [%]	inhibition at 1 µM (IL-6) [%]	inhibition at 10 µM (IL-6) [%]	inhibition at 1 µM (TNFα) [%]	inhibition at 10 µM (TNFα) [%]	fold induction at 1 µM (IL-2)	fold induction at 10 µM (IL-2; 10 μM)	% Degradation of PDE6D (PDE6D; 1 μM, comparison with comparative compound A)	effect on IL-2 (in words) (IL-2; 10 μM)	IL-2, % Induction compared to DMSO (IL-2; 10 μM, comparison with comparative compound B)
≥ 75	25 to 50	25 to 50	Cc1c(F)cc2c(c1C1CCCC1)CN(C1CCC(=O)NC1=O)C2=O (centres unmarked) [Compound 21, 3-(4-Cyclopentyl-6-fluoro-5-methyl-1-oxoisoindolin-2-yl) piperidine-2,6-dione]	< 10	< 10	< 10	< 10	< 10	25 to 50	≤ 0.5	≤ 0.5	–	–	–
≥ 75	≥ 75	< 25	C[C@@H](c1cc(F)cc2c1CN(C1CCC(=O)NC1=O)C2=O)C(F)(F)F (some centres unmarked) [Compound 22]	< 10	10 to 25	< 10	10 to 25	< 10	25 to 50	≤ 0.5	≤ 0.5	D (a % degradation value of equal to or more than 75% (value≥75%))	strong inhibition of IL-2 (downregulation)	A (a fold-change value of equal to or less than 0.5 (value≤0.5))
25 to 50	50 to 75	< 25	C[C@H](c1cc(F)cc2c1CN(C1CCC(=O)NC1=O)C2=O)C(F)(F)F (some centres unmarked) [Compound 23]	< 10	< 10	< 10	< 10	< 10	25 to 50	0.5 to 1	0.5 to 1	–	–	–
25 to 50	< 25	< 25	O=C1CCC(N2Cc3c(ccc(F)c3C3CCCC3)C2=O)C(=O)N1 (centres unmarked) [Compound 24]	< 10	< 10	< 10	< 10	10 to 25	< 10	1 to 1.5	1 to 1.5	–	–	–

The next lines start with the molecule.

Structure (SMILES)	Dmax at 1 µM (PDE6D) [%]	Dmax at 1 µM (CK1α) [%]	Dmax at 1 µM (Ikaros) [%]	inhibition at 1 µM (IL-1β) [%]	inhibition at 10 µM (IL-1β) [%]	inhibition at 1 µM (IL-6) [%]	inhibition at 10 µM (IL-6) [%]	inhibition at 1 µM (TNFα) [%]	inhibition at 10 µM (TNFα) [%]	fold induction at 1 µM (IL-2)	fold induction at 10 µM (IL-2; 10 μM)	% Degradation of PDE6D (PDE6D; 1 μM, comparison with comparative compound A)	effect on IL-2 (in words) (IL-2; 10 μM)	IL-2, % Induction compared to DMSO (IL-2; 10 μM, comparison with comparative compound B)
O=C1CCC(N2Cc3c(cc(F)cc3C3CCC(F)(F)CC3)C2=O)C(=O)N1 (centres unmarked) [Compound 11]	≥ 75	25 to 50	≥ 75	< 10	< 10	< 10	< 10	< 10	< 10	0.5 to 1	0.5 to 1	–	–	–
O=C1CCC(N2C(=O)c3cc(F)cc(C4CCCC4)c3C2=O)C(=O)N1 (centres unmarked) [Compound 12]	≥ 75	< 25	< 25	< 10	< 10	< 10	< 10	10 to 25	25 to 50	0.5 to 1	0.5 to 1	–	–	–
O=C1CCC(N2Cc3c(cccc3C3CC3)C2=O)C(=O)N1 (centres unmarked) [Compound 13]	50 to 75	50 to 75	50 to 75	25 to 50	25 to 50	< 10	< 10	> 50	> 50	≥ 1.5	≥ 1.5	–	–	–
COc1cc2c(c(C3CCCC3)c1)CN(C1CCC(=O)NC1=O)C2=O (centres unmarked) [Compound 14]	25 to 50	25 to 50	50 to 75	< 10	10 to 25	< 10	< 10	10 to 25	25 to 50	0.5 to 1	0.5 to 1	–	–	–
O=C1CCC(N2Cc3c(cc(F)cc3C3CCCCCC3)C2=O)C(=O)N1 (centres unmarked) [Compound 15]	≥ 75	50 to 75	25 to 50	< 10	< 10	< 10	< 10	< 10	< 10	0.5 to 1	≤ 0.5	–	–	–
O=C1CCC(N2Cc3c(cc(F)c(F)c3C3CCCC3)C2=O)C(=O)N1 (centres unmarked) [Compound 16]	≥ 75	50 to 75	< 25	< 10	< 10	< 10	< 10	< 10	10 to 25	0.5 to 1	0.5 to 1	–	–	–
CCC1(N2Cc3c(cc(F)cc3C3CCCC3)C2=O)CCC(=O)NC1=O (centres unmarked) [Compound 18, 3-(4-Cyclopentyl-6-fluoro-1-oxoisoindolin-2-yl)-3-ethylpiperidine-2,6-dione]	25 to 50	< 25	< 25	< 10	10 to 25	< 10	< 10	< 10	25 to 50	1 to 1.5	0.5 to 1	–	–	–
O=C1CC(N2Cc3c(cc(F)cc3C3CCCC3)C2=O)C(=O)N1 (centres unmarked) [Compound 19, 3-(4-Cyclopentyl-6-fluoro-1-oxoisoindolin-2-yl)pyrrolidine-2,5-dione]	≥ 75	< 25	< 25	< 10	< 10	< 10	< 10	< 10	< 10	0.5 to 1	0.5 to 1	–	–	–
O=C1CCC(N2Cc3c(cc(F)cc3C3CCC3)C2=O)C(=O)N1 (centres unmarked) [Compound 20]	≥ 75	50 to 75	25 to 50	< 10	< 10	< 10	< 10	10 to 25	25 to 50	≤ 0.5	≤ 0.5	–	–	–
